Measurements from patent US20120172228A1, “ALCOHOL ALKOXYLATES AS ADJUVANTS FOR AGROCHEMICAL FORMULATIONS” (SYNGENTA CROP PROTECTION, LLC, priority 2009, published 2012).

Tests used:
Type in all cases: in vivo
French bean = experiment: Phytotoxicity of adjuvant to French bean; settings: 7 days after spray application
Description: (§1) The plants were sprayed with water at a rate of approximately 500 litres per hectare, the water containing 0.1% v/v or 0.2% v/v adjuvant. The plants were assessed for phytotoxicity 7 days after spray application. Each experiment was replicated twice and the results averaged. In the control experiment the plants were sprayed with water and no phytotoxicity was observed.

Chinese cabbage = experiment: Phytotoxicity of adjuvant to Chinese cabbage; settings: 7 days after spray application
Description: as §1

soybean = experiment: Phytotoxicity of adjuvant to soybean; settings: 7 days after spray application
Description: as §1

[1] = tested on: polygonum convolvulus (POLCO); experiment: Adjuvant with herbicide mesotrione on POLCO
[2] = tested on: digitaria sanguinalis (DIGSA); experiment: Adjuvant with herbicide mesotrione on DIGSA
[3] = tested on: brachiaria platyphyla (BRAPL), digitaria sanguinalis (DIGSA), polygonum convolvulus (POLCO); experiment: Adjuvant with herbicide mesotrione, mean across three weed species (Example 20); settings: mesotrione 30, 60 or 90 g/ha; Sample 13 0.2%, Tween 20 0.5%; 14 and 21 days
Description: (§2) In this example Sample 13 from Table 1 was compared to the oil adjuvant blend Turbocharge™. The herbicide fomesafen was applied to the weed species xanthium strumarium (XANST), setaria viridis (SETVI), abutilon theophrasti (ABUTH), and chenopodium album (CHEAL) at rates of 60 or 120 grams per hectare, using a laboratory track sprayer. Each experiment was replicated four times and the percentage damage to the weeds was assessed visually at time periods of 7, 14 and 21 days after application. Each adjuvant was applied at a rate of 0.5% of the volume of the spray water. Four effects were evaluated: pesticide rate (2 levels), adjuvant type (two levels), weed species (four levels) and days after application (three levels). A standard simple linear model was constructed to judge the significance of these effects. […] The effect of each adjuvant was pulled out from the model and the least significant differences evaluated using a Student's t method. […]
In this example the rate response of the butylene oxide adjuvant 13 of Table 1 was measured to display the excellent performance of this adjuvant compared to the commercial adjuvant Tween™20, used at a rate of 0.5% by volume. […] In each case the experiments were replicated four times and the percentage damage to the weeds was assessed visually at time periods of 14 and 21 days after application.

[4] = tested on: brachiaria platyphyla (BRAPL); experiment: Adjuvant with herbicide mesotrione on BRAPL
[5] = tested on: brachiaria decumbens (BRADE), digitaria sanguinalis (DIGSA), polygonum convolvulus (POLCO), amaranthus retroflexus (AMARE); experiment: Adjuvant with herbicide mesotrione, mean across four weed species (Example 28); settings: mesotrione 45 or 90 g/ha; Sample 28 0.2%, Tween 20 0.5%; 7, 14 and 21 days
Description: as §2, with “levels).” for “levels). A standard simple linear model was constructed to judge the significance of these effects.”
In this example the rate response of a non-ethoxylated butylene oxide adjuvant was measured at an adjuvant rate of 0.2% by volume in order to display the excellent performance of this adjuvant compared to the commercial adjuvant' Tween 20, which was used at a rate of 0.5% by volume. […] In each case the experiments were replicated three times and the percentage damage to the weeds was assessed visually at time periods of 7, 14 and 21 days after application. […]

[6] = tested on: amaranthus tuberculatus (AMATU); experiment: Adjuvant with herbicide mesotrione on AMATU
[7] = tested on: brachiaria platyphyla (BRAPL), digitaria sanguinalis (DIGSA), polygonum convolvulus (POLCO), amaranthus tuberculatus (AMATU); experiment: Adjuvant with herbicide mesotrione, track sprayer, mean across four weed species
[8] = mesotrione 30, 60 or 90 g/ha, Sample 13 0.2%, Tween 20 0.5%, 14 and 21 days
[9] = mesotrione 45 and 90 g/ha, adjuvants 0.5% of spray water, 7, 14 and 21 days after application
[10] = mesotrione 45 or 90 g/ha, Sample 27 0.2%, Tween 20 0.5%, 7, 14 and 21 days

CCCCCCCC/C=C\CCCCCCCCOCCOCCOCCOCCOCCOCCOCCOCCOCCOCCO [Genapol O100]
French bean % phytotoxicity (French bean; 0.1% v/v adjuvant in water): 5% | French bean % phytotoxicity (French bean; 0.2% v/v adjuvant in water): 10% | Chinese cabbage % phytotoxicity (Chinese cabbage; 0.1% v/v adjuvant in water): 2% | Chinese cabbage % phytotoxicity (Chinese cabbage; 0.2% v/v adjuvant in water): 10% | Soybean % phytotoxicity (soybean; 0.1% v/v adjuvant in water): 3.5% | Soybean % phytotoxicity (soybean; 0.2% v/v adjuvant in water): 15%

Tween 20
mean efficacy (percentage damage to the weeds), POLCO [1, 8]: 32.77; B % | mean efficacy (percentage damage to the weeds), POLCO [1, 9]: 95.44; A % | mean efficacy (percentage damage to the weeds), POLCO [1, 10]: 73.61; A % | mean efficacy (percentage damage to the weeds), DIGSA [2, 8]: 45.55; A % | mean efficacy (percentage damage to the weeds), DIGSA [2, 9]: 48.33; B % | mean efficacy (percentage damage to the weeds), DIGSA [2, 10]: 41.67; A % | mean efficacy (percentage damage to the weeds), All weeds [3]: 26.11; B % | mean efficacy (percentage damage to the weeds), BRAPL [4, 8]: 26.11; B % | mean efficacy (percentage damage to the weeds), BRAPL [4, 9]: 44.72; B % | mean efficacy (percentage damage to the weeds), BRAPL [4, 10]: 33.06; B % | Mean kill (%) [5]: 65.8% | mean efficacy (percentage damage to the weeds), AMATU [6, 9]: 66.94; AB % | mean efficacy (percentage damage to the weeds), AMATU [6, 10]: 69.86; A % | mean efficacy (percentage damage to the weeds), All weeds [7, 9]: 63.861; B % | mean efficacy (percentage damage to the weeds), All weeds [7, 10]: 54.54; A %
